# Source: ChEMBL document CHEMBL1132515, “4-Chlorobenzyl sulfonamide and sulfamide derivatives of histamine homologues: the design of potent histamine H3 receptor antagonists” (Bioorg Med Chem Lett, 1999)
# Biological target: Histamine H3 receptor (Cavia porcellus, UniProt Q9JI35)
# Assay: Ability to displace [3H]R-alpha-methylhistamine from histamine H3 receptor in guinea pig ileum longitudinal muscle myenteric plexus(LMMP) membranes
# Type: tissue-based
# Chain of Histamine H3 receptor (Q9JI35 whole entry): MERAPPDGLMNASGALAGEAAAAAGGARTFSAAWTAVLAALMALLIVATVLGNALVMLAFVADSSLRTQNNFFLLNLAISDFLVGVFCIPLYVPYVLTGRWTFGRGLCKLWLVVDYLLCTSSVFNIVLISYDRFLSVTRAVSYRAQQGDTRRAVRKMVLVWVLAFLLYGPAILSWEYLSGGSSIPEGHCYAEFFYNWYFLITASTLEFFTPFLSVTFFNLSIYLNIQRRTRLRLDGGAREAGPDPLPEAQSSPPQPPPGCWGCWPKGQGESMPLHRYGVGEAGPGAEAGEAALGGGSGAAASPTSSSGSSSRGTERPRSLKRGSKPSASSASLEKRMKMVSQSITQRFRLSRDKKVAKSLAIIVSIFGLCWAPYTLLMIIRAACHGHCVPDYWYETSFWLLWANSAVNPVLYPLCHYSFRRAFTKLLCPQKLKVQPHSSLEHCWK
row,Ki,Compound
1,13.2 nM,O=S(=O)(NCCCCCCCCc1c[nH]cn1)NCc1ccc(Cl)cc1
2,2.63 nM,O=S(=O)(NCCCCc1c[nH]cn1)NCc1ccc(C(F)(F)F)cc1

# Biological target: Histamine H3 receptor (Cavia porcellus) (UniProt Q9JI35)
# Assay: Inhibition of neurogenic contractions in guinea pig ileum mediated by histamine H3 receptors
# Type: functional, tissue-based
# Chain of Histamine H3 receptor (Cavia porcellus) (Q9JI35 whole entry): as above
row,Compound,pKB
1,O=S(=O)(NCCCCCCCCCCc1c[nH]cn1)NCc1ccc(Cl)cc1,< 5
2,O=S(=O)(Cc1ccc(Cl)cc1)NCCCCCCc1c[nH]cn1,8.01
3,O=S(=O)(Cc1ccc(Br)cc1)NCCCCc1c[nH]cn1,7.68
4,O=S(=O)(Cc1ccc(Cl)cc1)NCCCCCCCCCCc1c[nH]cn1,< 5
5,O=S(=O)(Cc1ccc(Cl)cc1)NCCCCCCCc1c[nH]cn1,7.36
6,O=S(=O)(NCCCCc1c[nH]cn1)NCc1ccccc1,7.01
7,O=S(=O)(Cc1ccc(Cl)cc1)NCCCCc1c[nH]cn1,8.62
8,O=S(=O)(Cc1ccc(Cl)cc1)NCCCCCc1c[nH]cn1,7.33
9,O=S(=O)(Cc1ccc(Cl)cc1)NCCCc1c[nH]cn1,6.29
10,O=S(=O)(NCCCc1c[nH]cn1)NCc1ccc(Cl)cc1,7.04
11,O=S(=O)(Cc1ccc(C(F)(F)F)cc1)NCCCCc1c[nH]cn1,7.89
12,O=S(=O)(Cc1ccc(F)cc1)NCCCCc1c[nH]cn1,7.32
13,O=S(=O)(Cc1ccc(Cl)cc1)NCCCCCCCCc1c[nH]cn1,6.64

# The next lines start with the values.
row,pKB,Compound
1,8.1,O=S(=O)(Cc1ccc(-c2ccccc2)cc1)NCCCCc1c[nH]cn1
2,8.77,O=S(=O)(NCCCCCCc1c[nH]cn1)NCc1ccc(Cl)cc1
3,7.06,COc1ccc(CNS(=O)(=O)NCCCCc2c[nH]cn2)cc1
4,7.37,O=S(=O)(NCCCCCCCCc1c[nH]cn1)NCc1ccc(Cl)cc1
5,8.49,O=S(=O)(NCCCCc1c[nH]cn1)NCc1ccc(I)cc1
6,8.48,O=S(=O)(NCCCCc1c[nH]cn1)NCc1ccc(C(F)(F)F)cc1
7,8.91,O=S(=O)(NCCCCc1c[nH]cn1)NCc1ccc(Br)cc1
8,7.86,O=S(=O)(NCCCCc1c[nH]cn1)NCc1cccc(Cl)c1
9,6.42,O=S(=O)(NCCCCc1c[nH]cn1)NCc1ccccc1Cl
10,8.32,O=S(=O)(NCCCCc1c[nH]cn1)NCc1ccc(-c2ccccc2)cc1
11,8.37,O=S(=O)(NCCCCCCCc1c[nH]cn1)NCc1ccc(Cl)cc1
12,8.68,O=S(=O)(NCCCCc1c[nH]cn1)NCc1ccc(Cl)cc1
13,7.7,O=S(=O)(NCCCCc1c[nH]cn1)NCc1ccc(F)cc1
14,8.2,O=S(=O)(NCCCCCc1c[nH]cn1)NCc1ccc(Cl)cc1
